# From PubChem BioAssay (NCI)
#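 A five-concentration, 48-hour dose response in 96-well plates underlies each endpoint, interpolated linearly between surrounding concentrations. GI50: concentration for 50% inhibition of growth. TGI denotes the concentration required for complete inhibition of growth.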
# Key:
# Test in all cases: inhibition of tumour cell growth, NCI panel, 48 h
# A498 renal = system: A498 renal
# ACHN renal = system: ACHN renal
# LOX IMVI melanoma = system: LOX IMVI melanoma
# MDA-MB-231 breast = system: MDA-MB-231 breast
# NCI-H460 lung = system: NCI-H460 lung
# PC-3 prostate = system: PC-3 prostate
# SF-295 CNS = system: SF-295 CNS
# SK-MEL-5 melanoma = system: SK-MEL-5 melanoma
# SNB-75 CNS = system: SNB-75 CNS
# UACC-62 melanoma = system: UACC-62 melanoma
SMILES,TGI (A498 renal),TGI (ACHN renal),TGI (LOX IMVI melanoma),TGI (MDA-MB-231 breast),TGI (NCI-H460 lung),TGI (PC-3 prostate),TGI (SF-295 CNS),TGI (SK-MEL-5 melanoma),TGI (SNB-75 CNS),TGI (UACC-62 melanoma),GI50 (A498 renal),GI50 (ACHN renal),GI50 (LOX IMVI melanoma),GI50 (MDA-MB-231 breast),GI50 (NCI-H460 lung),GI50 (PC-3 prostate),GI50 (SF-295 CNS),GI50 (SK-MEL-5 melanoma),GI50 (SNB-75 CNS),GI50 (UACC-62 melanoma)
O=C1OC2C(O)C(=O)OC2C1O (stereo not given),> 100 µM,> 100 µM,> 100 µM,> 100 µM,> 100 µM,> 100 µM,> 100 µM,> 100 µM,> 100 µM,> 100 µM,,,,,,,,,,
CN1CCCCC1CCN1c2ccccc2Sc2ccc(S(C)=O)cc21 (stereo not given),> 100 µM,> 100 µM,> 100 µM,> 100 µM,> 100 µM,> 100 µM,> 100 µM,> 100 µM,> 100 µM,> 100 µM,,,,,,,,,,
CCCCCCCCCC(CCCC(O)CC(=O)O)OC1OC(COC2OC(C)C(O)C(O)C2O)C(O)C(O)C1OC1OC(CO)C(O)C(O)C1OC1OC(C)C(O)C(O)C1O (stereo not given),> 40 µM,> 40 µM,> 40 µM,> 40 µM,> 40 µM,> 40 µM,> 40 µM,> 40 µM,> 40 µM,> 40 µM,> 40 µM,> 40 µM,> 40 µM,> 40 µM,> 40 µM,> 40 µM,> 40 µM,> 40 µM,> 40 µM,> 40 µM
Cc1ccc(S(=O)(=O)n2cc(-c3nnnn3-c3ccc(Cl)cc3)c(=O)c3ccccc32)cc1,> 100 µM,> 100 µM,> 100 µM,> 100 µM,> 100 µM,> 100 µM,> 100 µM,> 100 µM,> 100 µM,> 100 µM,77.3 µM,> 100 µM,> 100 µM,> 100 µM,81.9 µM,57.3 µM,52.9 µM,70.6 µM,39.6 µM,54.8 µM
COc1ccc(-c2coc3cc(OC)cc(O)c3c2=O)cc1,89.1 µM,> 100 µM,> 100 µM,> 100 µM,> 100 µM,> 100 µM,> 100 µM,> 100 µM,> 100 µM,> 100 µM,,,,,,,,,,
CCCN1CCN(c2ccc3nc(-c4ccc5nc(-c6ccc(OCC)c(OCC)c6)[nH]c5c4)[nH]c3c2)CC1,1.82 µM,2.6 µM,0.461 µM,2.81 µM,1.35 µM,1.92 µM,2.03 µM,1.77 µM,1.9 µM,1.87 µM,0.538 µM,1 µM,0.198 µM,1.21 µM,0.387 µM,0.381 µM,0.391 µM,0.424 µM,0.425 µM,0.348 µM
N=c1ccn2c(n1)O[C@@H]1[C@@H](O)[C@H](CO)O[C@@H]12,> 100 µM,> 100 µM,> 100 µM,> 100 µM,> 100 µM,> 100 µM,> 100 µM,> 100 µM,47.6 µM,> 100 µM,> 100 µM,1.45 µM,6.97 µM,> 100 µM,0.446 µM,7.57 µM,16.2 µM,15.5 µM,1.58 µM,4.93 µM
C=C1C(=O)OC2/C=C(\C)C3OC3/C=C(/C(=O)OC)C(OC(C)=O)C(OC(=O)C(C)(O)C(C)OC(C)=O)C12 (stereo not given),11.5 µM,18.2 µM,3.61 µM,22.6 µM,13.3 µM,14.8 µM,21.5 µM,7.09 µM,10.6 µM,4.55 µM,,,,,,,,,,
C=C(CN1CCN(c2cccc(F)c2)CC1)c1ccc(C(=O)Nc2ccccc2N)cc1,9.08 µM,90.7 µM,13.1 µM,4.27 µM,> 100 µM,4.03 µM,73.6 µM,17.2 µM,6.24 µM,63.5 µM,2.12 µM,4.59 µM,1.67 µM,1.01 µM,3.95 µM,0.689 µM,2.77 µM,1.91 µM,0.492 µM,2.02 µM
CSc1nc2c(c(=O)[nH]1)C(c1ccc(Cl)cc1)C1=C(N2)/C(=C/c2ccc(Cl)cc2)CNC1 (stereo not given),11.3 µM,3.86 µM,3.81 µM,4.48 µM,7.61 µM,5.1 µM,4.43 µM,12.4 µM,11.5 µM,4.5 µM,2.68 µM,1.81 µM,1.9 µM,1.75 µM,2.75 µM,1.99 µM,1.96 µM,3.26 µM,2.69 µM,2.02 µM
COc1ccc(-c2nocc2-c2cc(OC)c(OC)c(OC)c2)cc1,2.9 µM,> 70.3 µM,> 74.5 µM,> 58.4 µM,15.5 µM,37.6 µM,16.9 µM,4.45 µM,> 100 µM,18.9 µM,0.0441 µM,1.53 µM,0.212 µM,0.35 µM,0.048 µM,0.0536 µM,0.0475 µM,0.0736 µM,0.0751 µM,0.0489 µM
Cc1ccccc1/C=C1\CN(C(=O)OC(C)(C)C)C/C(=C\c2ccccc2C)C1=O,6.24 µM,7.15 µM,3.6 µM,12.6 µM,4.27 µM,7.69 µM,5.37 µM,4.49 µM,9.34 µM,4.42 µM,3 µM,2.7 µM,1.88 µM,3.49 µM,2.12 µM,2.5 µM,2.19 µM,2.12 µM,2.71 µM,2 µM
CC(C)[C@@H]1CC[C@@H]2[C@@H]1[C@H](OC(=O)/C=C/c1ccccc1)[C@]1(C(C)C)C[C@@H](OC(=O)CO)[C@@]2(C)O1,0.0288 µM,4.25 µM,10.2 µM,10.4 µM,11.7 µM,12.2 µM,9.56 µM,10.8 µM,8.5 µM,9.97 µM,0.00806 µM,0.00824 µM,5.36 µM,5.38 µM,6.15 µM,5.31 µM,5.07 µM,5.96 µM,3.46 µM,4.94 µM
